ChEMBL document CHEMBL1159108, “Synthesis and antimicrobial activity of 2-fluorophenyl-4,6-disubstituted [1,3,5]triazines” (2010)
≈ marks a conversion by molar mass, not a printed value.

Legend:
[1] = test system: Enterococcus faecium; assay: Antibacterial activity against vancomycin-resistant Enterococcus faecium ATCC 49624; assay type: functional
[2] = test system: Staphylococcus epidermidis; assay: Antibacterial activity against methicillin-sensitive Staphylococcus epidermidis ATCC 155-U; assay type: functional
[3] = test system: Bacillus cereus; assay: Antibacterial activity against Bacillus cereus ATCC 13061; assay type: functional
[4] = test system: Candida albicans; assay: Antifungal activity against Candida albicans ATCC 10231; assay type: functional
[5] = test system: Candida albicans; assay: Antifungal activity against Candida albicans ATCC 10231
[6] = test system: Enterococcus faecalis; assay: Antibacterial activity against Enterococcus faecalis; assay type: functional
[7] = test system: Staphylococcus aureus; assay: Antibacterial activity against vancomycin-resistant Staphylococcus aureus; assay type: functional
[8] = test system: Staphylococcus aureus; assay: Antibacterial activity against methicillin-resistant Staphylococcus aureus; assay type: functional
[9] = test system: Staphylococcus cohnii; assay: Antibacterial activity against coagulase negative-susceptible Staphylococcus cohnii; assay type: functional
[10] = test system: Staphylococcus warneri; assay: Antibacterial activity against coagulase negative-susceptible Staphylococcus warneri; assay type: functional
[11] = test system: Streptococcus pneumoniae; assay: Antibacterial activity against multidrug-resistant Streptococcus pneumoniae; assay type: functional
[12] = test system: Streptococcus pneumoniae; assay: Antibacterial activity against Streptococcus pneumoniae; assay type: functional
[13] = test system: Cutibacterium acnes; assay: Antibacterial activity against Propionibacterium acnes; assay type: functional

Row | Structure (SMILES) | MIC [1] [µg/mL] | MIC [2] [µg/mL] | MIC [3] [µg/mL] | MIC [4] [µg/mL] | MIC [5] [µg/mL] | MIC [6] [µg/mL] | MIC [7] [µg/mL] | MIC [8] [µg/mL] | MIC [9] [µg/mL] | MIC [10] [µg/mL] | MIC [11] [µg/mL] | MIC [12] [µg/mL] | MIC [13] [µg/mL]
1 | NCCCCCNc1nc(Nc2cccc(F)c2)nc(-c2cncc(F)c2)n1 | 32 (≈ 83 µM) | 32 (≈ 83 µM) | 32 (≈ 83 µM) | > 100 | > 100 | – | – | – | – | – | – | – | –
2 | NCCCCCCNc1nc(Nc2cccc(F)c2)nc(-c2cccc(F)c2)n1 | 4 (≈ 10 µM) | 2 (≈ 5.02 µM) | 16 (≈ 40.2 µM) | 16 (≈ 40.2 µM) | 16 (≈ 40.2 µM) | – | – | – | – | – | – | – | –
3 | NCCCCCNc1nc(Nc2ccc(F)cc2)nc(-c2cccnc2)n1 | > 100 | 16 (≈ 43.5 µM) | > 100 | > 100 | > 100 | – | – | – | – | – | – | – | –
4 | NCCCCCNc1nc(Nc2cccc(F)c2)nc(-c2cc(F)cc(F)c2)n1 | 8 (≈ 19.9 µM) | 4 (≈ 9.94 µM) | 16 (≈ 39.8 µM) | 16 (≈ 39.8 µM) | 16 (≈ 39.8 µM) | – | – | – | – | – | – | – | –
5 | CC(C)(CN)CNc1nc(Nc2cccc(F)c2)nc(-c2cccc(F)c2)n1 | 8 (≈ 20.8 µM) | 2 (≈ 5.2 µM) | 8 (≈ 20.8 µM) | 4 (≈ 10.4 µM) | – | – | – | – | – | – | – | – | –
6 | Fc1cccc(Nc2nc(NC3CCCNC3)nc(-c3cccc(F)c3)n2)c1 (centres undefined) | 4 (≈ 10.5 µM) | 2 (≈ 5.23 µM) | 8 (≈ 20.9 µM) | 8 (≈ 20.9 µM) | 8 (≈ 20.9 µM) | – | – | – | – | – | – | – | –
7 | CC1(C)CC(Nc2nc(Nc3cccc(F)c3)nc(-c3cccc(F)c3)n2)CC(C)(C)N1 | 4 (≈ 9.12 µM) | 2 (≈ 4.56 µM) | 4 (≈ 9.12 µM) | 32 (≈ 73 µM) | – | – | – | – | – | – | – | – | –
8 | NCC1CCC(CNc2nc(Nc3cccc(F)c3)nc(-c3cccc(F)c3)n2)CC1 (centres undefined) | 8 (≈ 18.8 µM) | 8 (≈ 18.8 µM) | 8 (≈ 18.8 µM) | 64 (≈ 151 µM) | – | – | – | – | – | – | – | – | –
9 | NCC1(CNc2nc(Nc3cccc(F)c3)nc(-c3cccc(F)c3)n2)CCCC1 | 32 (≈ 78 µM) | 16 (≈ 39 µM) | 32 (≈ 78 µM) | 8 (≈ 19.5 µM) | – | – | – | – | – | – | – | – | –
10 | NCCCCCNc1nc(Nc2cccc(F)c2)nc(-c2cccc(O)c2)n1 | 8 (≈ 20.9 µM) | 8 (≈ 20.9 µM) | 8 (≈ 20.9 µM) | 32 (≈ 83.7 µM) | – | – | – | – | – | – | – | – | –
11 | NCCCCCNc1nc(-c2cccc(F)c2)nc(-c2cccc(F)c2)n1 | 8 (≈ 21.7 µM) | 2 (≈ 5.41 µM) | – | 4 (≈ 10.8 µM) | – | – | – | – | – | – | – | – | –
12 | NCCCCCNc1nc(NCCc2ccc(O)cc2)nc(-c2cccc(F)c2)n1 | 16 (≈ 39 µM) | 8 (≈ 19.5 µM) | 8 (≈ 19.5 µM) | > 100 | > 100 | – | – | – | – | – | – | – | –
13 | NCCN(CCN)c1nc(NCCc2ccc(O)cc2)nc(-c2cccc(F)c2)n1 | 8 (≈ 19.4 µM) | 4 (≈ 9.72 µM) | 8 (≈ 19.4 µM) | > 100 | > 100 | – | – | – | – | – | – | – | –
14 | NCCCCCNc1nc(NCCc2ccc(O)cc2)nc(-c2ccc(F)cc2)n1 | – | – | 4 (≈ 9.74 µM) | > 100 | > 100 | – | – | – | – | – | – | – | –
15 | NCCCCCNc1nc(NCCc2ccc(O)cc2)nc(Nc2ccc(F)cc2)n1 | 128 (≈ 301 µM) | 64 (≈ 150 µM) | 16 (≈ 37.6 µM) | > 100 | > 100 | 128 (≈ 301 µM) | 64 (≈ 150 µM) | 128 (≈ 301 µM) | 32 (≈ 75.2 µM) | 64 (≈ 150 µM) | 64 (≈ 150 µM) | 64 (≈ 150 µM) | 32 (≈ 75.2 µM)
16 | NCCCCCNc1nc(Nc2ccc(F)cc2)nc(-c2cccc(F)c2)n1 | 8 (≈ 20.8 µM) | 2 (≈ 5.2 µM) | 4 (≈ 10.4 µM) | 4 (≈ 10.4 µM) | – | – | – | – | – | – | – | – | –
17 | NCCCCCNc1nc(Nc2cccc(F)c2)nc(-c2ccc(F)cc2)n1 | 8 (≈ 20.8 µM) | 2 (≈ 5.2 µM) | 4 (≈ 10.4 µM) | 4 (≈ 10.4 µM) | – | – | – | – | – | – | – | – | –
18 | NCCCCCNc1nc(Nc2cccc(F)c2)nc(-c2ccccc2F)n1 | 8 (≈ 20.8 µM) | 4 (≈ 10.4 µM) | 64 (≈ 166 µM) | 16 (≈ 41.6 µM) | – | – | – | – | – | – | – | – | –
19 | NCCCCCNc1nc(Nc2cccc(C(F)(F)F)c2)nc(-c2cccc(F)c2)n1 | 4 (≈ 9.21 µM) | 8 (≈ 18.4 µM) | 16 (≈ 36.8 µM) | 16 (≈ 36.8 µM) | – | – | – | – | – | – | – | – | –
20 | NCCN(CCN)c1nc(NCCc2ccc(O)cc2)nc(-c2ccc(F)cc2)n1 | 16 (≈ 38.9 µM) | 8 (≈ 19.4 µM) | 16 (≈ 38.9 µM) | 32 (≈ 77.8 µM) | – | – | – | – | – | – | – | – | –
21 | NCCCCCCCNc1nc(Nc2cccc(F)c2)nc(-c2cccc(F)c2)n1 | 16 (≈ 38.8 µM) | 8 (≈ 19.4 µM) | 16 (≈ 38.8 µM) | 64 (≈ 155 µM) | – | – | – | – | – | – | – | – | –
22 | NCCCCCNc1nc(Nc2cccc(F)c2)nc(-c2cccc(F)c2)n1 | 4 (≈ 10.4 µM) | 8 (≈ 20.8 µM) | 8 (≈ 20.8 µM) | 8 (≈ 20.8 µM) | 8 (≈ 20.8 µM) | 8 (≈ 20.8 µM) | 8 (≈ 20.8 µM) | 8 (≈ 20.8 µM) | 2 (≈ 5.2 µM) | 4 (≈ 10.4 µM) | 8 (≈ 20.8 µM) | 8 (≈ 20.8 µM) | 16 (≈ 41.6 µM)
23 | NCc1ccc(CNc2nc(Nc3cccc(F)c3)nc(-c3cccc(F)c3)n2)cc1 | 8 (≈ 19.1 µM) | 4 (≈ 9.56 µM) | 16 (≈ 38.2 µM) | 16 (≈ 38.2 µM) | – | – | – | – | – | – | – | – | –
24 | NCCCCCNc1nc(Nc2cccc(F)c2)nc(-c2cccnc2)n1 | 16 (≈ 43.5 µM) | 8 (≈ 21.8 µM) | > 100 | > 100 | > 100 | – | – | – | – | – | – | – | –
25 | C[C@@H]1[C@H](O)[C@@H](C)/C=C/C=C/C=C/C=C/C=C/C=C/C=C/[C@H](O[C@@H]2O[C@H](C)[C@@H](O)[C@H](N)[C@@H]2O)C[C@@H]2O[C@](O)(C[C@@H](O)C[C@@H](O)[C@H](O)CC[C@@H](O)C[C@@H](O)CC(=O)O[C@H]1C)C[C@H](O)[C@H]2C(=O)O [AMPHOTERICIN B] | – | – | – | 1 (≈ 1.08 µM) | – | – | – | – | – | – | – | – | –
26 | O=C(O)c1cn(C2CC2)c2cc(N3CCNCC3)c(F)cc2c1=O [CIPROFLOXACIN] | > 16 | > 16 | – | – | – | > 16 | > 16 | > 16 | 0.12 (≈ 0.362 µM) | > 16 | 1 (≈ 3.02 µM) | > 16 | 0.5 (≈ 1.51 µM)
27 | CN[C@@H]1[C@H](O[C@H]2[C@H](O[C@H]3[C@H](O)[C@@H](O)[C@H](N=C(N)N)[C@@H](O)[C@@H]3N=C(N)N)O[C@@H](C)[C@]2(O)C=O)O[C@@H](CO)[C@H](O)[C@H]1O.CN[C@@H]1[C@H](O[C@H]2[C@H](O[C@H]3[C@H](O)[C@@H](O)[C@H](N=C(N)N)[C@@H](O)[C@@H]3N=C(N)N)O[C@@H](C)[C@]2(O)C=O)O[C@@H](CO)[C@H](O)[C@H]1O.O=S(=O)(O)O.O=S(=O)(O)O.O=S(=O)(O)O [STREPTOMYCIN SULFATE] | > 16 | > 16 | 8 | – | – | – | – | – | – | – | – | – | –
